This passage reports MIC results from patent US9650395B2, “Antibacterial compounds and methods for use” (PTC Therapeutics, Inc., priority 2011, dated 2017).

Values after ≈ are worked out from the molar mass of the structure shown. Like-named read-outs stand apart in the source and are kept apart here.

Assay [1] has as its system super sensitive Gram-negative Escherichia coli (E. coli) BAS849. In words: Antibacterial activity, microbroth dilution MIC, E. coli BAS849. Format: cell-based. Particulars: Escherichia coli, read-out: MIC, BAS849. Background: Dilution methods test growth across graded concentrations, often in twofold steps.
Assay [2] relates to control Gram-negative E. coli 25922 strain. In words: Antibacterial activity, microbroth dilution MIC, E. coli 25922. It counts as cell-based, Escherichia coli. Particulars: Escherichia coli; E. coli 25922, microbroth dilution; read-out: MIC, 25922.
Assay [3] relates to Gram-positive Staphylococcus aureus (S. aureus) 29213. Briefly: Antibacterial activity, microbroth dilution MIC, S. aureus 29213. Format: cell-based. The note with it: Staphylococcus aureus; S. aureus 29213, microbroth dilution; read-out: MIC, 29213.
The subject of assay [4] is Haemophilus influenzae (H. influenzae) 49247. In words: Antibacterial activity, MIC, H. influenzae 49247. Format: cell-based. The note with it: Haemophilus influenzae; H. influenzae 49247; read-out: MIC 49247. The text has this: The antibacterial activity from a microbroth dilution method may be presented as the minimum inhibitory concentration (MIC in […]). The MIC value is the lowest concentration of a drug which prevents macroscopically visible bacterial growth under test conditions.
Antibacterial activity of test compounds against the Gram-negative bacteria Haemophilus influenzae (H. influenzae) 49247, Moraxella catarrhalis (M. catarrhalis) 25238 and Neisseria meningitidis (N. meningitidis) 13090 is shown in Table 6.

In assay [5] the test system is Moraxella catarrhalis (M. catarrhalis) 25238. Briefly: Antibacterial activity, MIC, M. catarrhalis 25238. The note with it: Moraxella catarrhalis, M. catarrhalis 25238; read-out: MIC 25238. Format: cell-based.
In assay [6] the test system is Neisseria meningitidis (N. meningitidis) 13090. Briefly: Antibacterial activity, MIC, N. meningitidis 13090. It counts as cell-based. The note with it: Neisseria meningitidis; N. meningitidis 13090; read-out: MIC 13090.
Where [7] appears, read: E. coli BAS849, microbroth dilution.

With `CCc1cc(C(=O)O)c(=O)[nH]c1-c1ccc(-n2ccnc2)cc1` [Cpd 106, 5-ethyl-6-[4-(1H-imidazol-1-yl)phenyl]-2-oxo-1,2-dihydropyridine-3-carboxylic acid], the MIC in assay [1] (setting [7]) was 12.5 to 150 µg/mL (≈ 40.4 to 485 µM); in assay [2], 12.5 to 150 µg/mL (≈ 40.4 to 485 µM); in assay [3], 12.5 to 150 µg/mL (≈ 40.4 to 485 µM); in assay [4], below 1 µg/mL; in assay [5], 12.5 to 150 µg/mL (≈ 40.4 to 485 µM); in assay [6], 3.5 to 12.5 µg/mL (≈ 11.3 to 40.4 µM).

As for `CCc1cc(C(=O)O)c(=O)[nH]c1-c1ccc(N2[C@H](COC)CC[C@H]2COC)cc1` [Cpd 148, 6-{4-[(2S,5S)-2,5-bis(methoxymethyl)pyrrolidin-1-yl]phenyl}-5-ethyl-2-oxo-1,2-dihydropyridine-3-carboxylic acid], the MIC was in the range of 3.5 to 12.5 µg/mL (≈ 8.74 to 31.2 µM) in assay [1] (setting [7]); 12.5 to 150 µg/mL (≈ 31.2 to 375 µM) in assay [2]; 12.5 to 150 µg/mL (≈ 31.2 to 375 µM) in assay [3]; 12.5 to 150 µg/mL (≈ 31.2 to 375 µM) in assay [4]; 12.5 to 150 µg/mL (≈ 31.2 to 375 µM) in assay [5]; 3.5 to 12.5 µg/mL (≈ 8.74 to 31.2 µM) in assay [6].

For the compound `CCc1c(-c2ccc(N(C)C)cc2)[nH]c(=O)c(C(=O)O)c1OC` [Cpd 298, 6-[4-(dimethylamino)phenyl]-5-ethyl-4-methoxy-2-oxo-1,2-dihydropyridine-3-carboxylic acid], the MIC in assay [1] (setting [7]) was in the range of 3.5 to 12.5 µg/mL (≈ 11.1 to 39.5 µM); in assay [2] it was 12.5 to 150 µg/mL (≈ 39.5 to 474 µM); in assay [3], 12.5 to 150 µg/mL (≈ 39.5 to 474 µM); in assay [4], 3.5 to 12.5 µg/mL (≈ 11.1 to 39.5 µM); in assay [5] it was 12.5 to 150 µg/mL (≈ 39.5 to 474 µM); in assay [6] it was 3.5 to 12.5 µg/mL (≈ 11.1 to 39.5 µM).

With `CCc1cc(C(=O)O)c(=O)[nH]c1-c1ccc(N2CCNCC2)cc1.O=C(O)C(F)(F)F` [Cpd 103, 5-ethyl-2-oxo-6-[4-(piperazin-1-yl)phenyl]-1,2-dihydropyridine-3-carboxylic acid trifluoroacetate], the MIC in assay [1] is 3.5 to 12.5 µg/mL; in assay [2], 12.5 to 150 µg/mL; in assay [3] it was 12.5 to 150 µg/mL; in assay [4], below 1 µg/mL; in assay [5] it was 12.5 to 150 µg/mL; in assay [6] it was 3.5 to 12.5 µg/mL.

On to `CCc1cc(C(=O)O)c(=O)[nH]c1-c1ccc(N2CCCC2c2ccccc2)cc1` (centres unmarked) [Cpd 145, 5-ethyl-2-oxo-6-[4-(2-phenylpyrrolidin-1-yl)phenyl]-1,2-dihydropyridine-3-carboxylic acid], for which the MIC in assay [1] (setting [7]) was below 1 µg/mL; in assay [2], 12.5 to 150 µg/mL (≈ 32.2 to 386 µM); in assay [3] it was 1 to 3.5 µg/mL (≈ 2.57 to 9.01 µM); in assay [4], below 1 µg/mL; in assay [5], below 1 µg/mL; in assay [6], below 1 µg/mL.

Take `CCc1cc(C(=O)O)c(=O)[nH]c1-c1ccc(N2CCC[C@H]2COC)cc1` [Cpd 146, 5-ethyl-6-{4-[(2S)-2-(methoxymethyl)pyrrolidin-1-yl]phenyl}-2-oxo-1,2-dihydropyridine-3-carboxylic acid]: the MIC in assay [1] (setting [7]) is below 1 µg/mL; in assay [2], 12.5 to 150 µg/mL (≈ 35.1 to 421 µM); in assay [3] it was 12.5 to 150 µg/mL (≈ 35.1 to 421 µM); in assay [4] it was 1 to 3.5 µg/mL (≈ 2.81 to 9.82 µM); in assay [5], below 1 µg/mL; in assay [6] it was below 1 µg/mL.

`CCc1cc(C(=O)O)c(=O)[nH]c1-c1ccc(N2CCCC2c2nccs2)cc1` (centres unmarked) [Cpd 156, 5-ethyl-2-oxo-6-{4-[2-(1,3-thiazol-2-yl)pyrrolidin-1-yl]phenyl}-1,2-dihydropyridine-3-carboxylic acid]: the MIC is below 1 µg/mL in assay [1] (setting [7]); 12.5 to 150 µg/mL (≈ 31.6 to 379 µM) in assay [2]; 12.5 to 150 µg/mL (≈ 31.6 to 379 µM) in assay [3]; below 1 µg/mL in assay [4]; below 1 µg/mL in assay [5]; below 1 µg/mL in assay [6].

As for `CN(C)c1ccc(-c2[nH]c(=O)c(C(=O)O)cc2CN)cc1.Cl` [Cpd 22, 5-(aminomethyl)-6-[4-(dimethylamino)phenyl]-2-oxo-1,2-dihydropyridine-3-carboxylic acid hydrochloride], the MIC was in the range of 12.5 to 150 µg/mL in assay [1] (setting [7]); 12.5 to 150 µg/mL in assay [2]; 12.5 to 150 µg/mL in assay [3]; 12.5 to 150 µg/mL in assay [4]; 12.5 to 150 µg/mL in assay [5]; 3.5 to 12.5 µg/mL in assay [6].

For `CCc1c(-c2ccc(NCCCI)cc2)[nH]c(=O)c(C(=O)O)c1O` [Cpd 82, 5-ethyl-4-hydroxy-6-{4-[(3-iodopropyl)amino]phenyl}-2-oxo-1,2-dihydropyridine-3-carboxylic acid], the MIC in assay [1] (setting [7]) is 3.5 to 12.5 µg/mL (≈ 7.91 to 28.3 µM); in assay [2], 12.5 to 150 µg/mL (≈ 28.3 to 339 µM); in assay [3] it was 1 to 3.5 µg/mL (≈ 2.26 to 7.91 µM); in assay [4], below 1 µg/mL; in assay [5] it was below 1 µg/mL; in assay [6] it was below 1 µg/mL.

As to `CCc1cc(C(=O)O)c(=O)[nH]c1-c1ccc(N2CCN(C(=O)OC(C)(C)C)CC2)c(F)c1` [Cpd 91, 6-{4-[4-(tert-butoxycarbonyl)piperazin-1-yl]-3-fluorophenyl}-5-ethyl-2-oxo-1,2-dihydropyridine-3-carboxylic acid], the MIC is 12.5 to 150 µg/mL (≈ 28.1 to 337 µM) in assay [1] (setting [7]); 12.5 to 150 µg/mL (≈ 28.1 to 337 µM) in assay [2]; 12.5 to 150 µg/mL (≈ 28.1 to 337 µM) in assay [3]; 1 to 3.5 µg/mL (≈ 2.24 to 7.86 µM) in assay [4]; below 1 µg/mL in assay [5]; 3.5 to 12.5 µg/mL (≈ 7.86 to 28.1 µM) in assay [6].

For the compound `CN(C)c1ccc(-c2[nH]c(=O)c(C(=O)O)cc2Cc2ccccc2)cc1` [Cpd 1, 5-benzyl-6-[4-(dimethylamino)phenyl]-2-oxo-1,2-dihydropyridine-3-carboxylic acid], the MIC was 12.5 to 150 µg/mL (≈ 35.9 to 431 µM) in assay [1] (setting [7]); 12.5 to 150 µg/mL (≈ 35.9 to 431 µM) in assay [3]; below 1 µg/mL in assay [4]; 3.5 to 12.5 µg/mL (≈ 10 to 35.9 µM) in assay [5]; 3.5 to 12.5 µg/mL (≈ 10 to 35.9 µM) in assay [6].

With `CCc1c(-c2ccc(N3CCCCC3)cc2)[nH]c(=O)c(C(=O)O)c1O` [Cpd 109, 5-ethyl-4-hydroxy-2-oxo-6-[4-(piperidin-1-yl)phenyl]-1,2-dihydropyridine-3-carboxylic acid], the MIC was below 1 µg/mL in assay [1] (setting [7]); 12.5 to 150 µg/mL (≈ 36.5 to 438 µM) in assay [2]; 3.5 to 12.5 µg/mL (≈ 10.2 to 36.5 µM) in assay [3]; below 1 µg/mL in assay [4]; below 1 µg/mL in assay [5]; below 1 µg/mL in assay [6].

On to `CN(C)c1ccc(-c2[nH]c(=O)c(C(=O)O)c(O)c2C2CC2)cc1` [Cpd 13, 5-cyclopropyl-6-[4-(dimethylamino)phenyl]-4-hydroxy-2-oxo-1,2-dihydropyridine-3-carboxylic acid], for which the MIC is 1 to 3.5 µg/mL (≈ 3.18 to 11.1 µM) in assay [1] (setting [7]); 12.5 to 150 µg/mL (≈ 39.8 to 477 µM) in assay [2]; 3.5 to 12.5 µg/mL (≈ 11.1 to 39.8 µM) in assay [3]; below 1 µg/mL in assay [4]; below 1 µg/mL in assay [5]; below 1 µg/mL in assay [6].

In the case of `CCc1cc(C(=O)O)c(=O)[nH]c1-c1ccc(N2CCN(C(=O)OC(C)(C)C)CC2)cc1` [Cpd 102, 6-{4-[4-(tert-butoxycarbonyl)piperazin-1-yl]phenyl}-5-ethyl-2-oxo-1,2-dihydropyridine-3-carboxylic acid], the MIC was 1 to 3.5 µg/mL (≈ 2.34 to 8.19 µM) in assay [1] (setting [7]); 12.5 to 150 µg/mL (≈ 29.2 to 351 µM) in assay [2]; 12.5 to 150 µg/mL (≈ 29.2 to 351 µM) in assay [3]; 1 to 3.5 µg/mL (≈ 2.34 to 8.19 µM) in assay [4]; below 1 µg/mL in assay [5]; 1 to 3.5 µg/mL (≈ 2.34 to 8.19 µM) in assay [6].

Turning to `CN(C)c1ccc(-c2[nH]c(=O)c(C(=O)O)cc2C2CCCCC2)cc1` [Cpd 6, 5-cyclohexyl-6-[4-(dimethylamino)phenyl]-2-oxo-1,2-dihydropyridine-3-carboxylic acid], the MIC in assay [1] (setting [7]) is 3.5 to 12.5 µg/mL (≈ 10.3 to 36.7 µM); in assay [2], 12.5 to 150 µg/mL (≈ 36.7 to 441 µM); in assay [3], 12.5 to 150 µg/mL (≈ 36.7 to 441 µM); in assay [4], below 1 µg/mL; in assay [5], 3.5 to 12.5 µg/mL (≈ 10.3 to 36.7 µM); in assay [6], below 1 µg/mL.

In the case of `Cc1cc(C(=O)O)c(=O)[nH]c1-c1ccc(N2CCOCC2)c(F)c1` [Cpd 89, 6-[3-fluoro-4-(morpholin-4-yl)phenyl]-5-methyl-2-oxo-1,2-dihydropyridine-3-carboxylic acid], the MIC in assay [1] (setting [7]) was 12.5 to 150 µg/mL (≈ 37.6 to 451 µM); in assay [2] it was 12.5 to 150 µg/mL (≈ 37.6 to 451 µM); in assay [3], 12.5 to 150 µg/mL (≈ 37.6 to 451 µM); in assay [4] it was below 1 µg/mL; in assay [5] it was 12.5 to 150 µg/mL (≈ 37.6 to 451 µM); in assay [6], 12.5 to 150 µg/mL (≈ 37.6 to 451 µM).
